Results as given in ChEMBL document CHEMBL1201862, “PubChem BioAssay data set” (2004).
Active and inactive are the calls of the source.

Legend:
[1] = C. albicans growth with fluconazole, confirmation, fluorescence, retest (AID 2467); type: functional, cell-based
[2] = NIH-3T3 fibroblast cytotoxicity, dose response, cytotoxicity control, cell-based, fluorescence, Alamar Blue, secondary assay (AID 2327); type: functional;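 further: NIH-3T3 mouse fibroblasts cultured with fluconazole at 8 µg/mL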
[3] = HEp-2 cell cytotoxicity, dose response, cytotoxicity control for RSV inhibitor project, HTS (AID 2410); type: functional; details: human respiratory syncytial virus
Protein RecA = target: T1, Protein RecA (Mycobacterium tuberculosis, UniProt P9WHJ3); assay: Fluorescence Cell-Free Homogeneous Dose Retest to Identify Inhibitors of RecA-Intein Splicing Activity. [Related pubchem assays (depositor defined):AID2097, AID2223, AID489010, AID492950]; type: functional
T1 sequence (P9WHJ3 whole entry): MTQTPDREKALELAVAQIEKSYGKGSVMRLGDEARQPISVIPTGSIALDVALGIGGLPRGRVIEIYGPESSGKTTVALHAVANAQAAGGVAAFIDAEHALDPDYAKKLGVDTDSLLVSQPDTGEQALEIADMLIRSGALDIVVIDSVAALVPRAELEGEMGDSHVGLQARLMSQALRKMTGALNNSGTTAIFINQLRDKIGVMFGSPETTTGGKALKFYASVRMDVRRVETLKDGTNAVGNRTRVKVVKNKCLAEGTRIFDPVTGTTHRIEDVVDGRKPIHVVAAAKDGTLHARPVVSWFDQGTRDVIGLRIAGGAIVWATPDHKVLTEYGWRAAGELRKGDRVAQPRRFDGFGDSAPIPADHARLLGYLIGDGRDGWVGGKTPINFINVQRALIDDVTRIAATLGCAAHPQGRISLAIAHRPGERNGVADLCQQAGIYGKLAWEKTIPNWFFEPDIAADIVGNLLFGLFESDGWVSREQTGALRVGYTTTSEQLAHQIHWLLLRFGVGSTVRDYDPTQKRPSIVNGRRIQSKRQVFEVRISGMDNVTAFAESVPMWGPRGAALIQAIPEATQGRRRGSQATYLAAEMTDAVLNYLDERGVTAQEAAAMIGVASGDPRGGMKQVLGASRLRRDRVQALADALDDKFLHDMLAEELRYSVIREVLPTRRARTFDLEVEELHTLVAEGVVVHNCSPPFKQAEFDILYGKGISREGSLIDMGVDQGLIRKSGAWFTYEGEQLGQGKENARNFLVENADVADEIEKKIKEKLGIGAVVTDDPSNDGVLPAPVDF

[4] = target: T2, Replicative DNA helicase DnaB (Mycobacterium tuberculosis, UniProt P9WMR3); assay: DnaB intein splicing inhibitors, dose response, biochemical, cell-free fluorescence (AID 449749); type: functional
T2 sequence (P9WMR3 whole entry): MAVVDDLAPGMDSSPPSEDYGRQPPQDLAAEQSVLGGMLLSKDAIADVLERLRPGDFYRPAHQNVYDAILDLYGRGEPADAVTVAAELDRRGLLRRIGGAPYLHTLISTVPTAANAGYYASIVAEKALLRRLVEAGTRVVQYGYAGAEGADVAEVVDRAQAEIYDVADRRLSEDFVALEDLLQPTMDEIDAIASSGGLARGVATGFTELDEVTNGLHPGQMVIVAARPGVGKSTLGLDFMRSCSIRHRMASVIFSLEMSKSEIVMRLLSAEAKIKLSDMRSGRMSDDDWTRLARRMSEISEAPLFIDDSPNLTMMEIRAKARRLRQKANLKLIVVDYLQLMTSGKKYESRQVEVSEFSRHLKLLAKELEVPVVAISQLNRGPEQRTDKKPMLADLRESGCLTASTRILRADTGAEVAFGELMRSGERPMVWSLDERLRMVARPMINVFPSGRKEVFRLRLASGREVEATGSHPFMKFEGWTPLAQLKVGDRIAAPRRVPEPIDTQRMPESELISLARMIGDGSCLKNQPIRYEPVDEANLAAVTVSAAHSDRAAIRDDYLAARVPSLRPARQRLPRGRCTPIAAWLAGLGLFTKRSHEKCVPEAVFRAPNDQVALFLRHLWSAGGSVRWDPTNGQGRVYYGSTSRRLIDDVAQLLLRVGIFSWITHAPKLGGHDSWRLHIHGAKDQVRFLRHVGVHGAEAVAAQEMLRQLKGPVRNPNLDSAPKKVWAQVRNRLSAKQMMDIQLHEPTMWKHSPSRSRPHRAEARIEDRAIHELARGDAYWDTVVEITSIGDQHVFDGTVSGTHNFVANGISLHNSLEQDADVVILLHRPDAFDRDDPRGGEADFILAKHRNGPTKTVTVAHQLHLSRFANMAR

[5] = target: T3, Calpain-2 catalytic subunit (Sus scrofa, UniProt P43367); assay: pig calpain II inhibitor potency, dose response, biochemical, fluorogenic peptide substrate (AID 1420); type: functional
T3 sequence (P43367 whole entry): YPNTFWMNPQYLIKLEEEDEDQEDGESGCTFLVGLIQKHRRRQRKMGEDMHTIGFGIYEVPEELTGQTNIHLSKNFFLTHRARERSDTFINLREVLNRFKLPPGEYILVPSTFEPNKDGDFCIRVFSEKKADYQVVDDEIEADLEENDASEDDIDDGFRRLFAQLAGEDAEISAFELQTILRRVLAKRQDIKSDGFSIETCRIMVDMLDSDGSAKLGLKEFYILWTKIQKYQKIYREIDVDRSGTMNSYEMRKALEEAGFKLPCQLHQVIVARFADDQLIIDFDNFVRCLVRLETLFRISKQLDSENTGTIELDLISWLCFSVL

[6] = target: T4, Rac GTPase-activating protein 1 (Homo sapiens, UniProt Q9H0H5); assay: MgcRacGAP GTPase-activating activity inhibitors, confirmation, biochemical, ADP Hunter fluorescence, primary and confirmatory (AID 624330); type: functional
T4 sequence (Q9H0H5 whole entry): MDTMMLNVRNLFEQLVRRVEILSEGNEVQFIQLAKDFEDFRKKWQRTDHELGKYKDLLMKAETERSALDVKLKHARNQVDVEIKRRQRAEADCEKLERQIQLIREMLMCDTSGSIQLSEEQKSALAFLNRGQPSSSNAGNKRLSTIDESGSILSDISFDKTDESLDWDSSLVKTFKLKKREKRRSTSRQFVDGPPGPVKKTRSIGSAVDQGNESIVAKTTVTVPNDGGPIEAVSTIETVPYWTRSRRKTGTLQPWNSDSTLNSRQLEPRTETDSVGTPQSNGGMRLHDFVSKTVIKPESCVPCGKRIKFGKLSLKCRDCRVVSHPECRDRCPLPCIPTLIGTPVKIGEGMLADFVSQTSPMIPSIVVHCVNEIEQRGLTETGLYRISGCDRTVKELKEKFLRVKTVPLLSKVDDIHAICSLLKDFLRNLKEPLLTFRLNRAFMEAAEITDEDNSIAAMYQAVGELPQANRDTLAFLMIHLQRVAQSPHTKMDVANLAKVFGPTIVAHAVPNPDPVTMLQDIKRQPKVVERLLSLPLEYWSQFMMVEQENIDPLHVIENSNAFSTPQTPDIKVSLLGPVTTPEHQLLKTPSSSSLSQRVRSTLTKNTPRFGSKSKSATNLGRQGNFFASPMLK

[7] = Luminescence Cell-Based Dose Retest to Confirm Inhibitors of Cancer Stem Cells. [Related pubchem assays (depositor defined):AID2717, AID2721]; type: functional; details: Homo sapiens
[8] = target: T5, Heat shock factor protein 1 (Mus musculus, UniProt P38532); assay: inhibition of MG132-induced HSE-luciferase signal, confirmation, cell-based, NIH3T3, luminescence, dose retest (AID 2382); type: functional;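 further: NIH3T3 fibroblasts with HSF1-driven luciferase reporter stressed by proteasome inhibitor MG132; luminescence from HSF1-driven luciferase expression after 8 hours of MG132 stress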
T5 sequence (P38532 whole entry): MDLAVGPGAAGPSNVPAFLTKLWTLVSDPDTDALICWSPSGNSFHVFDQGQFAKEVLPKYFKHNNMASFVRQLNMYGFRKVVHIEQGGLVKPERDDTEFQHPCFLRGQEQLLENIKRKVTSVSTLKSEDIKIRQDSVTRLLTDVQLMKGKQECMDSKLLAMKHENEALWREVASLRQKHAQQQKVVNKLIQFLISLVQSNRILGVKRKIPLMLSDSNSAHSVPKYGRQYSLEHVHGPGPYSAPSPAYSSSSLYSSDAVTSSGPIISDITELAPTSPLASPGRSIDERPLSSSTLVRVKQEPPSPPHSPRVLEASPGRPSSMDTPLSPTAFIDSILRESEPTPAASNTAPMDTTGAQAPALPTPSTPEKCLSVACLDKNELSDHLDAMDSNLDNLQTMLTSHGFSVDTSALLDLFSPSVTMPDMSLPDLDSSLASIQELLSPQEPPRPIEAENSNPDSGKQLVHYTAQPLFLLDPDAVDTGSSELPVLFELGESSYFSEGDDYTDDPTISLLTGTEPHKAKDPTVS

## COc1ccccc1NC(=O)Cn1cnc2c(cnn2-c2ccccc2)c1=O
[1]
  EC50: > 38 µM (not active)
[2]
  EC50: > 150 µM (inactive)

## CCOc1ccc2nc(SCC(=O)N3CCN(C(=O)c4ccco4)CC3)sc2c1
[3]
  CC50: 22.8 µM (active)

## Cc1ccc(/C=C/C(=O)c2c(C)cc(C)nc2O)cc1
[3]
  CC50: 17.7 µM (active)

## Cc1ccc(N(CCCCN2C(=O)c3ccccc3C2=O)C(=O)c2cccs2)cc1
[3]
  CC50: 38.9 µM (active)

## Cc1nc2ccccc2c2c1C(=O)N(c1cccc(C(=O)O)c1)C2=O
Protein RecA
  EC50: 17 µM (active)
[4]
  AC50: 37 µM (active)

## O=C1CC2C(=O)NCCN2C(NC(=O)c2ccc(Cl)cc2)=N1 (stereo not drawn)
[5]
  IC50: 0.931 µM (not active)

## Cc1cc(C)c2c(c1)-c1c(ssc1=S)C(C)(C)N2C(=O)CSc1nncn1C
Protein RecA
  EC50: 8.17 µM (active)
[4]
  AC50: 5.32 µM (active)

## N#Cc1cc2c(nc1SCc1nc3ccccc3[nH]1)CCC2
[3]
  CC50: 38 µM (active)

## CC(NC(=O)c1ccccc1)c1ccc(F)cc1 (stereo not drawn)
[5]
  IC50: > 50 µM (not active)

## CCOC(=O)N1CCN(CC(=O)Nc2sccc2C#N)CC1
[5]
  IC50: 33.6 µM (not active)

## CCCCC(=O)Nc1ccc(C(=O)c2ccccc2)cc1
[5]
  IC50: > 50 µM (not active)

## Cc1ccc(C2CC(C(F)F)n3ncc(C(=O)Nc4cnn(Cc5ccccc5C)c4)c3N2)cc1 (stereo not drawn)
[3]
  CC50: 19.4 µM (active)

## CCN(c1ccc(OCC(=O)OCC(=O)Nc2ccc(F)c(F)c2F)cc1)S(=O)(=O)c1ccccc1
[5]
  IC50: 3.96 µM (not active)

## COc1ccccc1C1CC(c2ccco2)=NN1S(C)(=O)=O (stereo not drawn)
[1]
  EC50: > 38 µM (not active)
[2]
  EC50: > 160 µM (inconclusive)

## CC(C)CS(=O)(=O)C1=NSC2=NC(=O)/C(=C\c3ccc(OC(=O)c4ccco4)cc3)C(=N)N21
Protein RecA
  EC50: 13.8 µM (active)
[4]
  AC50: > 380 µM (inactive)

## CC(C)c1n[nH]c2c1C1(CCN(Cc3ccccc3)CC1)C(C#N)=C(N)O2
Protein RecA
  EC50: 1.16 µM (active)
[4]
  AC50: 53.5 µM (active)

## O=C(Nc1ccc(F)c(Cl)c1)NC1CC1
[1]
  EC50: 2.1 µM (active)
[2]
  EC50: > 150 µM (inactive)

## COc1ccc(/C(=C/Nc2cccc(Br)c2)C(C)=O)cc1OC
[5]
  IC50: 9 µM (not active)

## C=CCn1c(CCCNC(=O)c2ccccc2OC)nc2ccccc21
[5]
  IC50: 13.2 µM (not active)

## Cc1ccc(Cl)cc1N1CCN(C(=O)CCCn2c(=O)c3cccn3c3cccnc32)CC1
[3]
  CC50: 12.1 µM (active)

## CCCCNc1nnc(SCC(=O)N2CCN(S(=O)(=O)c3ccc4ccccc4c3)CC2)s1
[3]
  CC50: > 50 µM (active)

## CC(=O)c1cccc(NC(=S)NC(=O)c2ccc(C)cc2)c1
[1]
  EC50: > 38 µM (not active)
[2]
  EC50: > 160 µM (inactive)

## COc1ccc(CN2C(=O)/C(=C\NNC(=O)c3cccnc3)c3ccccc3C2=O)cc1
[1]
  EC50: 1.32 µM (active)
[2]
  EC50: 27.4 µM (active)
[6]
  IC50: 137 µM (active)

## Cc1cccc(N2CCN(C(=O)c3ccc4c(c3)CCN4S(C)(=O)=O)CC2)c1C
[3]
  CC50: 38.3 µM (active)

## CC(Oc1ccc(F)cc1)C(=O)Oc1ccc(N(C)S(=O)(=O)c2ccccc2)cc1 (stereo not drawn)
Protein RecA
  EC50: 58.5 µM (active)
[4]
  AC50: 0.725 µM (active)

## CCOC(=O)CN(C(=O)CSc1n[nH]c2c3cc(F)ccc3nc-2n1)c1ccccc1
[5]
  IC50: 5.94 µM (not active)

## CCc1n[nH]c2c1C1(CCN(C(=O)c3ccccc3)CC1)C(C#N)=C(N)O2
Protein RecA
  EC50: 4.3 µM (active)
[4]
  AC50: 24.6 µM (active)

## CC1=C(C(=O)OCc2ccccc2)C(c2cccs2)N2C(=O)CCSC2=N1 (stereo not drawn)
[5]
  IC50: 8.99 µM (not active)

## Cc1cccc(C(=O)c2cnc3ccccc3c2-c2ccccc2)c1
Protein RecA
  EC50: 22.8 µM (active)
[4]
  AC50: 4.79 µM (active)

## CCOC(=O)C1CCN(Cc2cc(C(C)C)c(O)c(C(C)C)c2)CC1
Protein RecA
  EC50: > 380 µM (inactive)

## CCOC(=O)c1ccc(-n2[nH]c(-c3ccccc3)cc2=O)cc1
[7]
  AC50: 5.35 µM (active)
[8]
  EC50: > 195 µM (not active)
Protein RecA
  EC50: 2.25 µM (active)
[4]
  AC50: 3.43 µM (active)

## CCOC(=O)c1cnc(N)nc1C(F)(F)F
Protein RecA
  EC50: > 380 µM (inactive)
[4]
  AC50: > 380 µM (inactive)

## N#C/C(=C(/O)CN1C(=O)c2ccccc2C1=O)c1nc2ccccc2[nH]1
[5]
  IC50: 2.28 µM (not active)

## COc1ccccc1N1CCN(/N=C/c2cc([N+](=O)[O-])ccc2Cl)CC1
[3]
  CC50: 29 µM (active)

## N#Cc1c(-c2ccc(Cl)cc2)cc(-c2ccccc2)nc1SCC(=O)O
[1]
  EC50: 1.57 µM (active)
[2]
  EC50: 134 µM (active)
